Where “and” joins values, the source holds several entries; their conditions need not be identical. Identical values can stand only once. No end group written: not given here.
Columns and labels:
[1] = tested on: PaAP variant R194A; assay: biochemical; parameters: species or system Pseudomonas aeruginosa; details: compared to full-length PaAP
Method: To test this, we produced the PaAP variant R194A to eliminate a likely salt bridge between the peptide COOH and the guanidinium of the protein arginine side chain.
Inhibition assays were carried out with the following peptides: linear-[…] (PaAP C-terminal residues), cyclic-[…], N-acetylated and C-amidated […]. IC50 values were determined by varying peptide concentration at a fixed substrate concentration (fixed at KM, (S) = 2 mM, PaAP concentration was 100 nM). KI was determined by assaying multiple fixed inhibitor concentrations (1,000 nM, 500 nM, 250 nM, 100 nM, 50 nM, 25 nM and 10 nM) at varying substrate concentrations under standard reaction conditions with Leu-pNA as a substrate (outlined above). KI values were determined by fitting the data to equation (1) (Morrison’s equation):1 v=1−Et+I+KI−Et+I+KI^2−4EtIKI/2Et where v is the velocity, Et is the total enzyme concentration, I is the concentration of inhibitor and KI is the equilibrium dissociation constant for the inhibitor.

[2] = molecular target: T1, PaAP (Pseudomonas aeruginosa, UniProt Q02PA2, A513L/Q514V/S515P); assay: Peptide digestion assay (overnight and time course, LC-MS/MALDI); type: biochemical; details: for substrate of / degraded by PaAP (words): incubated with PaAP overnight, LC–MS or MALDI; for P0 (parent peptide, LC–MS signal): 500 μM peptide, 1 μM PaAP_T
T1 construct: PaAP (WT, residues 27–536); His6 (TEV cleavable) (N, cleaved yes); made in house; host or cells: E. coli SHuffle T7
T1 sequence (Q02PA2 37-516 A513L/Q514V/S515P): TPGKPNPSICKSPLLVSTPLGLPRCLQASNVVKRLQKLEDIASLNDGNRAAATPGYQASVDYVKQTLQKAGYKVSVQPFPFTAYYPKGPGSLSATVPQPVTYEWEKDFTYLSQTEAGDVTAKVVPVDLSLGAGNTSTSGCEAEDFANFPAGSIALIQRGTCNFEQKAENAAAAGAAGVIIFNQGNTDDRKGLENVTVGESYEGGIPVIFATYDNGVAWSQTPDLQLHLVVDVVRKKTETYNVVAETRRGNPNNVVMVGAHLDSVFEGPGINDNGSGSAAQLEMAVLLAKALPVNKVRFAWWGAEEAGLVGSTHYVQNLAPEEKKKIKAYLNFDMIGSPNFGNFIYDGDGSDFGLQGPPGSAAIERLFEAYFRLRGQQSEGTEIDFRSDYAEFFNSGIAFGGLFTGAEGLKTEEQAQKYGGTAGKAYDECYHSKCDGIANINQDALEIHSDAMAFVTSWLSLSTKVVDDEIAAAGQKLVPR
Method: A variety of peptides of varying lengths and compositions were incubated with PaAP at room temperature. Assays were performed by incubating (overnight at room temperature) 500 μM of substrate (peptides) with 1 μM enzyme (PaAP) in reaction buffer (50 mM Tris, pH 8.5, 100 mM NaCl). The reactions were quenched by heating to 100 °C for 10 min followed by centrifugation at 17,000g in a benchtop centrifuge to remove precipitate. Supernatant was collected and samples were analyzed by LC–MS. Initial trial assays were carried out in the presence and absence (control) of enzyme to determine if the substrate was degraded (single or triplicate experiments). Time-course assays were performed on selected peptide substrates in triplicate. A 300 μl reaction (including 500 μM of substrate) was initiated by the addition of 1 μM enzyme. The reaction was incubated at room temperature. The reaction was quenched at set timepoints by the removal of 30 μl aliquots, which were immediately heated to 100 °C for 10 min. The samples were analyzed by LC–MS using a Xevo Q-ToF (Waters) as described below, searching for masses of all peptide breakdown products.
Peptide degradation time courses were fitted to exponential equations as follows:
P0 peptide consumption was fitted to a single exponential equation (equation (2)) with the format2 yt=y0−Plateaue^−kt+Plateau
Time courses for the formation and decay of peptide intermediates were fitted to double exponential equations (equation (3)) and single exponential equations, followed by a linear phase (4)3 yt=y0−Plateau1e^−k1t+y0−Plateau2e^−k2t+Plateau 4 yt=y0−Plateaue^−kt+vt+Plateau where y(t) is the product formed at time t, y0 − Plateau is the amplitude of the exponential phase, k is the observed rate constant for the exponential phase, y0 is the value of y at time 0, Plateau is the value of y after exponential phase, C is the offset and v is the slope of the linear phase.
Peptide samples incubated in the presence and absence of PaAP were initially analyzed by MALDI. The peptide sample (0.5 µl at 10 µM) was spotted along with matrix (0.5 µl 10 mg ml^−1 α-cyano-4-hydroxycinnamic acid in ACN/0.1% TFA (50/50, vol/vol)) on a stainless steel MALDI plate and left to dry. The sample plate was loaded into a Sciex 4800 MALDI mass spectrometer. The laser voltage was adjusted to give a good signal to noise strength, and 50 shots were acquired in a random pattern across the spot and spectra combined. The spectra were externally calibrated with Sciex Pepcal mix (range: 500–4,000 m/z).

[3] = molecular target: T2, PaAP_T (P. aeruginosa aminopeptidase, C-terminal truncated) (Pseudomonas aeruginosa, UniProt Q02PA2); assay: Inhibition of PaAP_T in the Leu-pNA aminopeptidase assay (KI, IC50); type: biochemical; details: for IC50 plot data (PaAP_T activity at given peptide concentration): (S) = 2 mM, PaAP 100 nM, listed as ERWGHDFIK (linear)
T2 construct: PaAP (WT, residues 27–536); His6 (TEV cleavable) (N, cleaved yes); made in house; host or cells: E. coli SHuffle T7
T2 sequence (Q02PA2 37-516, looked up, natural form): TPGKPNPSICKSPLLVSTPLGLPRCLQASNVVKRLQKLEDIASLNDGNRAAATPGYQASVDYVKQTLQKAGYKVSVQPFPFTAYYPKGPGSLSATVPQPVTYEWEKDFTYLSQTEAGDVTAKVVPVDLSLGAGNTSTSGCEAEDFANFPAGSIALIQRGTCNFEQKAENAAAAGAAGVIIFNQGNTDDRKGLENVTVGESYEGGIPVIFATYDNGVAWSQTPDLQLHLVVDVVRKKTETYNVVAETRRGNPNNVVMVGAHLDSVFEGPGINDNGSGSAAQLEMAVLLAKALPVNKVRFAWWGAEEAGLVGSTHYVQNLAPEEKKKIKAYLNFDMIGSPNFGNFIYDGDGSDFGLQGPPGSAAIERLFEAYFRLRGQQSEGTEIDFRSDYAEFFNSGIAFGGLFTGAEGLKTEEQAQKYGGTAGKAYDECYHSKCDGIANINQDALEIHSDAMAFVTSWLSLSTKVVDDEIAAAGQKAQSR
Method: Aminopeptidase activity was determined spectrophotometrically primarily using amino Leu-pNA. Other commercially available pNA substrates (isoleucine, methionine, alanine, valine, proline, arginine, lysine and phenylalanine) were also assayed. Leu-pNA was incubated with enzyme (100 nM) in assay buffer (50 mM Tris, pH 8.5, 200 mM NaCl) at 25 °C. A pNA release caused an absorbance increase at 405 nm, monitored using a BMG Labtech plate reader. […] Data were plotted in GraphPad Prism (version 9) and the Michalis Menten equation was used for fitting.
Inhibition assays were carried out with the following peptides: linear-ERWGHDFIK (PaAP C-terminal residues), cyclic-ERWGHDFIK, N-acetylated and C-amidated ERWGHDFIK. IC50 values were determined by varying peptide concentration at a fixed substrate concentration (fixed at KM, (S) = 2 mM, PaAP concentration was 100 nM). […] KI values were determined by fitting the data to equation (1) (Morrison’s equation):1 v=1−Et+I+KI−Et+I+KI^2−4EtIKI/2Et where v is the velocity, Et is the total enzyme concentration, I is the concentration of inhibitor and KI is the equilibrium dissociation constant for the inhibitor. IC50 values increased when measured at increasing S, consistent with competitive inhibition.

Question: What does the source list for ERWGHDFIK [linear-ERWGHDFIK]?
Answer: fold increase of IC50 with R194A variant [1]: 100 fold; substrate of / degraded by PaAP (words) [2]: acts as a substrate; substrate of / degraded by PaAP (words) ([2]; listed as ERWGHDFIK): capable of processing; P0 (parent peptide, LC–MS signal) ([2]; time 0 minutes): 472729 and 388218 and 391107; P0 (parent peptide, LC–MS signal) ([2]; time 5 minutes): 463970 and 401514 and 388992; P0 (parent peptide, LC–MS signal) ([2]; time 10 minutes): 456641 and 389333 and 386619; P0 (parent peptide, LC–MS signal) ([2]; time 30 minutes): 422990 and 361623 and 355988; P0 (parent peptide, LC–MS signal) ([2]; time 60 minutes): 374560 and 318426 and 323916; P0 (parent peptide, LC–MS signal) ([2]; time 90 minutes): 323540 and 290204 and 288024; P0 (parent peptide, LC–MS signal) ([2]; time 120 minutes): 238229 and 257847; P0 (parent peptide, LC–MS signal) ([2]; time 1220 minutes): 623.109 and 431.795 and 326.884; Ki [3]: 9.98 µM; Slope ([3]; inhibitor 1 μM, [S] 0.125 mM): 21.4683 and 20.3052 and 17.979; Slope ([3]; inhibitor 1 μM, [S] 0.25 mM): 41.2291 and 37.1458 and 30.365; Slope ([3]; inhibitor 1 μM, [S] 0.5 mM): 67.9068 and 67.7954 and 67.0654; Slope ([3]; inhibitor 1 μM, [S] 1 mM): 121.633 and 131.285 and 109.532; Slope ([3]; inhibitor 1 μM, [S] 2 mM): 200.701 and 204.537 and 171.128; Slope ([3]; inhibitor 1 μM, [S] 4 mM): 291.524 and 268.014 and 241.411; Slope ([3]; inhibitor 5 μM, [S] 0.125 mM): 9.581 and 8.778 and 8.696; Slope ([3]; inhibitor 5 μM, [S] 0.25 mM): 32.4809 and 31.8746 and 26.7767; Slope ([3]; inhibitor 5 μM, [S] 0.5 mM): 59.2205 and 59.9629 and 55.5826; Slope ([3]; inhibitor 5 μM, [S] 1 mM): 96.3415 and 104.397 and 108.74; Slope ([3]; inhibitor 5 μM, [S] 2 mM): 181.646 and 174.716 and 170.509; Slope ([3]; inhibitor 5 μM, [S] 4 mM): 244.875 and 240.668 and 225.201; Slope ([3]; inhibitor 10 μM, [S] 0.125 mM): 20.5527 and 17.7562 and 12.5469; Slope ([3]; inhibitor 10 μM, [S] 0.25 mM): 41.2291 and 35.2155 and 27.5686; Slope ([3]; inhibitor 10 μM, [S] 0.5 mM): 78.3873 and 67.5108 and 53.8255; Slope ([3]; inhibitor 10 μM, [S] 1 mM): 125.469 and 113.021 and 101.823; Slope ([3]; inhibitor 10 μM, [S] 2 mM): 183.502 and 182.636 and 149.35; Slope ([3]; inhibitor 10 μM, [S] 4 mM): 242.153 and 233.244 and 209.115; Slope ([3]; inhibitor 25 μM, [S] 0.125 mM): 6.59 and 5.065; Slope ([3]; inhibitor 25 μM, [S] 0.25 mM): 13.4378 and 10.2466 and 12.344; Slope ([3]; inhibitor 25 μM, [S] 0.5 mM): 24.5618 and 19.0802 and 21.3817; Slope ([3]; inhibitor 25 μM, [S] 1 mM): 49.4576 and 37.8759 and 44.6938; Slope ([3]; inhibitor 25 μM, [S] 2 mM): 81.2827 and 58.2058 and 83.8441; Slope ([3]; inhibitor 25 μM, [S] 4 mM): 157.641 and 123.551 and 157.764; Slope ([3]; inhibitor 50 μM, [S] 0.25 mM): 11.9777 and 10.1576 and 8.79; Slope ([3]; inhibitor 50 μM, [S] 0.5 mM): 21.0971 and 19.6494 and 15.7888; Slope ([3]; inhibitor 50 μM, [S] 2 mM): 58.0945 and 62.2891 and 43.8276; Slope ([3]; inhibitor 50 μM, [S] 4 mM): 81.3941 and 82.5449 and 61.3735; Slope ([3]; inhibitor 100 μM, [S] 0.125 mM): 4.015 and 2.528; Slope ([3]; inhibitor 100 μM, [S] 0.25 mM): 7.23 and 6.8674 and 5.4469; Slope ([3]; inhibitor 100 μM, [S] 0.5 mM): 11.4246 and 12.4479 and 9.504; Slope ([3]; inhibitor 100 μM, [S] 1 mM): 22.1736 and 23.0274 and 17.6325; Slope ([3]; inhibitor 100 μM, [S] 2 mM): 38.6801 and 37.22 and 41.7859; Slope ([3]; inhibitor 100 μM, [S] 4 mM): 61.8313 and 63.972 and 50.5094; IC50 plot data (PaAP_T activity at given peptide concentration) ([3]; log(I) 0): 90.0485 and 96.6538 and 93.9669; IC50 plot data (PaAP_T activity at given peptide concentration) ([3]; log(I) 0.39794): 67.4338 and 85.0852 and 79.5995; IC50 plot data (PaAP_T activity at given peptide concentration) ([3]; log(I) 0.69897): 45.9385 and 56.7981 and 56.8354; IC50 plot data (PaAP_T activity at given peptide concentration) ([3]; log(I) 1): 21.9729 and 26.522 and 23.891; IC50 plot data (PaAP_T activity at given peptide concentration) ([3]; log(I) 1.39794): 12.1508 and 12.1918 and 12.9158; IC50 plot data (PaAP_T activity at given peptide concentration) ([3]; log(I) 1.69897): 10.3856 and 11.9269 and 11.4231; IC50 plot data (PaAP_T activity at given peptide concentration) ([3]; log(I) 2): 9.945 and 11.4156 and 11.076; IC50 plot data (PaAP_T activity at given peptide concentration) ([3]; log(I) -0.30103): 92.6981 and 112.924 and 94.3774

Source: publication PMC10449631 (Nature Chemical Biology, 2023)
